The values that follow come from patent US12492188B2, “1H-benzo[D]imidazole derivatives as TLR9 inhibitors for the treatment of fibrosis” (BRISTOL-MYERS SQUIBB COMPANY, priority 2020, dated 2025).

Read-outs that look alike come from different tables or passages of the source.

One may read the IC50 as the point on the concentration scale where inhibition reaches its midpoint.

What all share (assay type): cell-based
For one experiment, the target named is T1, human TLR9 (Homo sapiens, UniProt Q9NR96).
T1 construct: host or cells: HEK-Blue cells (HEK293-derived reporter line)
T1 sequence (Q9NR96 26-1032): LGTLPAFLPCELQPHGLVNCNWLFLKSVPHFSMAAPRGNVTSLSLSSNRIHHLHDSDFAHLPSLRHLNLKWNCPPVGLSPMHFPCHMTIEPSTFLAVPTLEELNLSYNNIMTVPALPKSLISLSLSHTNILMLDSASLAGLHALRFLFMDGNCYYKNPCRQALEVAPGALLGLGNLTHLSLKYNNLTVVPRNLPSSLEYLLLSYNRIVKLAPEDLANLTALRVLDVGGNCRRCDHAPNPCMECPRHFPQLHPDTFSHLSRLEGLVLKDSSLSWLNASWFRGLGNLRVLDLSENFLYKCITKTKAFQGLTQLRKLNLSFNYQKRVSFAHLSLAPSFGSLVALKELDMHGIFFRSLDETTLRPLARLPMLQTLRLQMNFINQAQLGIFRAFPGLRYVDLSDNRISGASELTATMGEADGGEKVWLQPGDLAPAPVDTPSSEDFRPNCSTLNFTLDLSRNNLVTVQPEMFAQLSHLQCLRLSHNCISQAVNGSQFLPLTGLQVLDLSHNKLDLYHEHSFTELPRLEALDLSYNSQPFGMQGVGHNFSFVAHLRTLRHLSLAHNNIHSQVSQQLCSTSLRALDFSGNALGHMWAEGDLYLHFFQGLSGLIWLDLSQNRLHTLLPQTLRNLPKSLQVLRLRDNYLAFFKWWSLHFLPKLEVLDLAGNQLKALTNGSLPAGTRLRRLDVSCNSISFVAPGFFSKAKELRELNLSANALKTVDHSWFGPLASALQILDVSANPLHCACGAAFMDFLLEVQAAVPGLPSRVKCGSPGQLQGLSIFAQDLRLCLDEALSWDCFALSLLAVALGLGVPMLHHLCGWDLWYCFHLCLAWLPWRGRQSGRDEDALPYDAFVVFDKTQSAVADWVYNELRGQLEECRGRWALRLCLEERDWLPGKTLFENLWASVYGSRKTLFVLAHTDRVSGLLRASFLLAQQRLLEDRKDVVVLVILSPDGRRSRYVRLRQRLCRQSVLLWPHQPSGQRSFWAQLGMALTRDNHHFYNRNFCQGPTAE
Description: TLR9 inhibition reporter assay (HEK-Blue cells, secreted embryonic alkaline phosphatase reporter). The settings on record: HEK-Blue cells overexpressing human TLR9, stimulated with ODN2006 5 nM. In outline: (§1)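 Inhibitors are tested in dose response (0.05 nM–50 μM) on HEK-Blue reporter cells expressing human TLR7, TLR8 or TLR9. After 30 min at room temperature, each line is stimulated with its own agonist (gardiquimod 7.5 μM, R848 15.9 μM or ODN2006 5 nM, final) and SEAP is measured 22 h later.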

For another experiment, the target named is T2, human TLR8 (Homo sapiens, UniProt Q9NR97).
T2 construct: host or cells: HEK-Blue cells (HEK293-derived reporter line)
T2 sequence (Q9NR97 27-1041): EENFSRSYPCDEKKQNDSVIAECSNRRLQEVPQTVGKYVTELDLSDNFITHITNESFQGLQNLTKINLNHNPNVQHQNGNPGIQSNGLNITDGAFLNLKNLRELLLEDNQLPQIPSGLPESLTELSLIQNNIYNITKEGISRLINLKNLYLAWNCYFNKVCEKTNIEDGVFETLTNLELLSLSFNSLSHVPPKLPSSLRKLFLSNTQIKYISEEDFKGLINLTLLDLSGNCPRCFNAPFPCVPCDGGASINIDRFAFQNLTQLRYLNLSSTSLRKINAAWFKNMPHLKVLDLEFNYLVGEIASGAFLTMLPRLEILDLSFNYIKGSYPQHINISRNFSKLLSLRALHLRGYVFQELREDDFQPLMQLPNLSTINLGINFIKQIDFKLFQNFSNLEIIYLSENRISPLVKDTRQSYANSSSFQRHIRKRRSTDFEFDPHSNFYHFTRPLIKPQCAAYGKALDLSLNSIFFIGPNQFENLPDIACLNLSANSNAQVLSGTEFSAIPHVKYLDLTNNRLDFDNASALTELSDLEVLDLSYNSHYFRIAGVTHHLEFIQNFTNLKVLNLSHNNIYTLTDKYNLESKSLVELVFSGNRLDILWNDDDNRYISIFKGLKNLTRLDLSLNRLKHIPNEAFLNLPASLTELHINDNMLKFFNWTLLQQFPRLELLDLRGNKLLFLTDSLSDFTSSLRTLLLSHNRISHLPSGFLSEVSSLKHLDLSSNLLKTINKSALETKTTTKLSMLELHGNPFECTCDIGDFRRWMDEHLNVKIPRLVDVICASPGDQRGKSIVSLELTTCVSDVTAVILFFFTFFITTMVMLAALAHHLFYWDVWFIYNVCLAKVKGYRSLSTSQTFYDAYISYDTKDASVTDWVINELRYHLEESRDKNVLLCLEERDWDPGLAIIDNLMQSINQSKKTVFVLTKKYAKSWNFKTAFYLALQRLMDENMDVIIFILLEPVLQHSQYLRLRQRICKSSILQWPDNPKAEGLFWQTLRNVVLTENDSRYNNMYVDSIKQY
Description: TLR8 inhibition reporter assay (HEK-Blue cells, secreted embryonic alkaline phosphatase reporter). The settings on record: HEK-Blue cells overexpressing human TLR8, stimulated with R848 15.9 μM; read-out: TLR 8 IC50. In outline:
as §1
On the technique in general: Reporter assays use an easily measured gene product as a stand-in for the process of interest.

The target in a further experiment is T3, human TLR7 (Homo sapiens, UniProt Q9NYK1).
T3 construct: host or cells: HEK-Blue cells (HEK293-derived reporter line)
T3 sequence (Q9NYK1 27-1049): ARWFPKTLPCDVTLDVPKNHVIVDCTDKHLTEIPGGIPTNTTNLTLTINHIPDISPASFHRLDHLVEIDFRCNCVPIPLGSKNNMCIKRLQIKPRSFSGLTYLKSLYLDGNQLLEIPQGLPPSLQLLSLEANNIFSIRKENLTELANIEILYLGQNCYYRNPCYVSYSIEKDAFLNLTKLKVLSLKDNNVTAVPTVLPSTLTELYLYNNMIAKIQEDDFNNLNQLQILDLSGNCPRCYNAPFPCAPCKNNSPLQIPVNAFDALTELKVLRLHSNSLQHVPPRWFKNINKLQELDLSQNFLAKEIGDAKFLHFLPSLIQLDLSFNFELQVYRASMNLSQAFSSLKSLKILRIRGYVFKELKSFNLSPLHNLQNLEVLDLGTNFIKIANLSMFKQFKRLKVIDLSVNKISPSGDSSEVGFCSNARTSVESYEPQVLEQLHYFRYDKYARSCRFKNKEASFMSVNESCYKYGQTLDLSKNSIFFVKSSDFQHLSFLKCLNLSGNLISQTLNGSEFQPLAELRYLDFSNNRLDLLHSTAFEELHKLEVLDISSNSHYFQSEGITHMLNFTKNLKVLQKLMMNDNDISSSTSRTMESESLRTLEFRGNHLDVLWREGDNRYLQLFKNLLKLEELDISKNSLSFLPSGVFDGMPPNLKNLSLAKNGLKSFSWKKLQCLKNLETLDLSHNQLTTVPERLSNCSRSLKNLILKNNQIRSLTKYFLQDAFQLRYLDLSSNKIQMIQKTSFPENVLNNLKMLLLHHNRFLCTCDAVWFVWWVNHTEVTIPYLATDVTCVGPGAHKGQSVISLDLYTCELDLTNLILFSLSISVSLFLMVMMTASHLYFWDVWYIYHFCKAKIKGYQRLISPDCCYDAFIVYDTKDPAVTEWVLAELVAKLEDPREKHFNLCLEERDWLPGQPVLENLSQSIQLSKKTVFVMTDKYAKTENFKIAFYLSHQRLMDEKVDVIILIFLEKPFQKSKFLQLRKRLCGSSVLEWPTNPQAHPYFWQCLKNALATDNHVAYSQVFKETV
Kind of experiment: TLR7 inhibition reporter assay (HEK-Blue cells, secreted embryonic alkaline phosphatase reporter). The settings on record: HEK-Blue cells overexpressing human TLR7, stimulated with gardiquimod 7.5 μM; read-out: TLR 7 IC50. In outline:
as §1

Where [1] appears, read: 22 hour incubation, reporter readout.

For `COc1ccc(-c2nc3c(C)cc(C4CCN(C5CCN(C6CC6)CC5)CC4)cc3n2C)cc1OC` [Example 46, 6-(1′-cyclopropyl-[1,4′-bipiperidin]-4-yl)-2-(3,4-dimethoxyphenyl)-1,4-dimethyl-1H-benzo[d]imidazole tris(2,2,2-trifluoroacetate)], the IC50 is 170 nM against human TLR9 (setting [1]), 610 nM at human TLR9 (read-out: TLR 9 IC50), > 50000 nM at human TLR8 and 18000 nM at human TLR7.
As for `COc1ccc(-c2nc3c(C)cc(C4CCN(C5CC6(C5)CN(CC(C)C)C6)CC4)cc3n2C)cc1OC` [Example 47, 2-(3,4-dimethoxyphenyl)-6-(1-(2-isobutyl-2-azaspiro[3.3]heptan-6-yl)piperidin-4-yl)-1,4-dimethyl-1H-benzo[d]imidazole tris(2,2,2-trifluoroacetate)], the IC50 was 13 nM at human TLR9 (setting [1]), 13 nM on human TLR9 (read-out: TLR 9 IC50), > 50000 nM on human TLR8 and 7200 nM on human TLR7.
Consider `COc1ccc(-c2nc3c(C)cc(C4CCN(C5CC6(C5)CN(CC5CC5)C6)CC4)cc3n2C)cc1OC` [Example 48, 6-(1-(2-(cyclopropylmethyl)-2-azaspiro[3.3]heptan-6-yl)piperidin-4-yl)-2-(3,4-dimethoxyphenyl)-1,4-dimethyl-1H-benzo[d]imidazole], for which the IC50 at human TLR9 (setting [1]) was 19 nM; on human TLR9 (read-out: TLR 9 IC50) it was 19 nM; on human TLR8, > 50000 nM; on human TLR7, > 50000 nM.
Consider `COc1ccc(-c2nc3c(C)cc(C4CCN(C5CC6(C5)CN(C5CCC5)C6)CC4)cc3n2C)cc1OC` [Example 49, 6-(1-(2-cyclobutyl-2-azaspiro[3.3]heptan-6-yl)piperidin-4-yl)-2-(3,4-dimethoxyphenyl)-1,4-dimethyl-1H-benzo[d]imidazole], for which the IC50 is 65 nM at human TLR9 (setting [1]), 65 nM at human TLR9 (read-out: TLR 9 IC50), > 50000 nM at human TLR8 and 5800 nM on human TLR7.
Regarding `COc1ccc(-c2nc3c(C)cc(C4CC5CCC(C4)N5C4CCN(CC(C)C)CC4)cc3n2C)cc1OC` (centres unmarked) [Example 50, 2-(3,4-dimethoxyphenyl)-6-(8-(1-isobutylpiperidin-4-yl)-8-azabicyclo[3.2.1]octan-3-yl)-1,4-dimethyl-1H-benzo[d]imidazole], the IC50 against human TLR9 (setting [1]) was 23 nM; at human TLR9 (read-out: TLR 9 IC50) it was 23 nM; at human TLR8 it was > 50000 nM; at human TLR7, 2900 nM.
For `COc1ccc(-c2nc3c(C)cc(C4CC5CCC(C4)N5C4CCN(C5CC5)CC4)cc3n2C)cc1OC` (centres unmarked) [Example 51, 6-(8-(1-cyclopropylpiperidin-4-yl)-8-azabicyclo[3.2.1]octan-3-yl)-2-(3,4-dimethoxyphenyl)-1,4-dimethyl-1H-benzo[d]imidazole], the IC50 is 130 nM on human TLR9 (setting [1]), 130 nM at human TLR9 (read-out: TLR 9 IC50), > 50000 nM on human TLR8 and 20000 nM on human TLR7.
Turning to `Cc1cc(C2CCN(C3CCN(CC(C)C)CC3)CC2)cc2c1nc(-c1ccc(S(C)(=O)=O)cc1)n2C` [Example 52, 6-(1′-isobutyl-[1,4′-bipiperidin]-4-yl)-1,4-dimethyl-2-(4-(methylsulfonyl)phenyl)-1H-benzo[d]imidazole], the IC50 against human TLR9 (setting [1]) was 130 nM; on human TLR9 (read-out: TLR 9 IC50) it was 129 nM; on human TLR8, > 50000 nM; on human TLR7 it was 4800 nM.
As to `Cc1cc(C2CCN(C3CCN(C4CC4)CC3)CC2)cc2c1nc(-c1ccc(S(C)(=O)=O)cc1)n2C` [Example 53, 6-(1′-cyclopropyl-[1,4′-bipiperidin]-4-yl)-1,4-dimethyl-2-(4-(methylsulfonyl)phenyl)-1H-benzo[d]imidazole], the IC50 is 420 nM against human TLR9 (setting [1]), 421 nM at human TLR9 (read-out: TLR 9 IC50), > 50000 nM on human TLR8 and 24000 nM at human TLR7.
As to `COc1ccc(-c2nc3c(C)cc(C4CCN(C5CCN(CC(C)C)CC5)CC4)cc3n2C)cc1F` [Example 54, 2-(3-fluoro-4-methoxyphenyl)-6-(1′-isobutyl-[1,4′-bipiperidin]-4-yl)-1,4-dimethyl-1H-benzo[d]imidazole], the IC50 at human TLR9 (setting [1]) is 130 nM; at human TLR9 (read-out: TLR 9 IC50), 131 nM; on human TLR8 it was > 50000 nM; at human TLR7, 7700 nM.
Take `COc1ccc(-c2nc3c(C)cc(C4CCN(C5CCN(C6CC6)CC5)CC4)cc3n2C)cc1F` [Example 55, 6-(1′-cyclopropyl-[1,4′-bipiperidin]-4-yl)-2-(3-fluoro-4-methoxyphenyl)-1,4-dimethyl-1H-benzo[d]imidazole]: the IC50 was 140 nM at human TLR9 (setting [1]), 140 nM on human TLR9 (read-out: TLR 9 IC50), > 50000 nM on human TLR8 and 9300 nM at human TLR7.
As for `COc1ccc(-c2nc3c(C)cc(C4CCN(C5CCN(CC(C)C)CC5)CC4)cc3[nH]2)cc1F` [Example 56, 2-(3-fluoro-4-methoxyphenyl)-6-(1′-isobutyl-[1,4′-bipiperidin]-4-yl)-4-methyl-1H-benzo[d]imidazole], the IC50 is 50 nM at human TLR9 (setting [1]), 50 nM at human TLR9 (read-out: TLR 9 IC50), > 50000 nM on human TLR8 and 3200 nM on human TLR7.
